From patent US9205161B2, “Disinfecting composition comprising a chloramine bleaching agent for removable dental appliances” (LMA Solutions, Inc., priority 2014, dated 2015)

Test system: BL21 E. coli cells
Test: Bacterial kill after contact in LB broth, plating on LB agar
Type: cell-based
Details: 15 min exposure at 37° C.; for % Reduction Product / CFU/ml Product / Log reduction Product: MES 25 μM, NaDCC 0.9 mg/ml
Protocol: A working suspension of BL21 E. coli cells in LB broth (1.16×10^8 CFU/ml) was contacted for 15 min at 37° C. with either 1×PBS buffer (control), 2-(N-morpholino)ethanesulfonic acid (“MES”) (final conc. of 25 μM or 0.0049 mg/ml), Sodium Dichloroisocyanurate (“NaDCC”) (final conc. of 0.9 mg/ml), or MES (final conc. of 25 μM or 0.0049 mg/ml)+NaDCC (final conc. of 0.9 mg/ml). Lysogeny broth (LB), a nutritionally rich medium, is primarily used for the growth of bacteria.
After contact, ten-fold serial dilutions from 1:10 to 1:10^6 were prepared using D/E neutralizing broth and an aliquot at each dilution (100 μl) was plated onto an LB agar plate and incubated for 20 hours at 37° C.
The plate shown in FIG. 1A corresponds to treatments with MES-only at a plating dilution of 1:1×10^4. The plate shown in FIG. 1B corresponds to treatments with NaDCC-only at a plating dilution of 1:10. The plate shown FIG. 1C corresponds to treatment with MES+NaDCC at plating dilution of 1:10.

| SMILES | Plate count (CFU) (plate dilution 1:1.0E+05, 100 ul plated) | % Reduction Product | CFU/ml Product | Log reduction Product | Plate count (CFU) (plate dilution 1:1.0E+01, 100 ul plated) |
| --- | --- | --- | --- | --- | --- |
| O=S(=O)(O)CCN1CCOCC1 [MES only, 2-(N-morpholino)ethanesulfonic acid] | 128 CFU | −10.3448% | 1.28E+08 CFU/ml | −0.04 |  |
| O=c1nc([O-])n(Cl)c(=O)n1Cl.[Na+] [NaDCC only, Sodium Dichloroisocyanurate] |  | 99.9715% | 3.31E+04 CFU/ml | 3.54 | 331 CFU |
